Laboratory results reported in patent US7247727B2, “Azaindole thiazolinones” (Hoffmann-La Roche Inc., priority 2004, dated 2007).

Experiments:
[1] = target: CDK1/Cyclin B (Homo sapiens, UniProt P06493); assay: CDK1/Cyclin B kinase assay (FlashPlate or HTRF); format: biochemical; conditions: recombinant human CDK1/Cyclin B, Rb protein substrate; Ki=IC50/(1+[S]/Km)
Description: To determine inhibition of CDK1 activity, either FlashPlate™ (NEN™-Life Science Products) assay or HTRF assay was performed. Both types of kinase assays were carried out using recombinant human CDK1/Cyclin B complex. GST-cyclinB (GST-cycB) and CDK1 cDNA clones in baculovirus vectors were provided by Dr. W. Harper at the Baylor College of Medicine, Houston, Tex. Proteins were co-expressed in High Five™ insect cells and the complex was purified on glutathione Sepharose resin (Pharmacia, Piscataway, N.J.) as previously described (Harper, J. W. et al. Cell 1993, 75, 805-816). A 6x-Histidine tagged truncated form of retinoblastoma (Rb) protein (amino acid 386-928) was used as the substrate for the CDK1/Cyclin B assay (the expression plasmid was provided by Dr. Veronica Sullivan, Department of Molecular Virology, Roche Research Centre, Welwyn Garden City, United Kingdom). The Rb protein is a natural substrate for phosphorylation by CDK1 (see Herwig and Strauss Eur. J. Biochem. Vol. 246 (1997) pp. 581-601 and the references cited therein). The expression of the 62Kd protein was under the control of an IPTG inducible promoter in an M15 E. coli strain. Cells were lysed by sonication and purification was carried out by binding lysates at pH 8.0 to a Ni-chelated agarose column pretreated with 1 mM imidazole. The resin was then washed several times with incrementally decreasing pH buffers to pH 6.0, and eluted with 500 mM imidazole. Eluted protein was dialyzed against 20 mM HEPES pH 7.5, 30% glycerol, 200 mM NaCl, and 1 mM DTT. Purified Rb fusion protein stocks were quantitated for protein concentration, aliquoted, and stored at −70° C.
For the FlashPlate kinase assay, 96-well FlashPlates were coated with Rb protein at 10 μg/ml, using 100 μl per well. Plates were incubated at 4° C. overnight or at room temperature for 3 hours on a shaker. […] Plates were washed four times with the wash buffer, sealed, and counted on the TopCount scintillation counter (Packard Instrument Co., Downers Grove, Ill.]. The percent inhibition of Rb phosphorylation, which is a measure of the inhibition of CDK activity, was determined according to the following formula:
[formula] where “test compound” refers to the average counts per minute of the test duplicates, “nonspecific” refers to the average counts per minute when no CDK1/Cyclin B, etc., was added, and “total” refers to the average counts per minute when no compound was added. […] The value of the inhibitor constant Ki is calculated by the following: Ki=IC50/(1+[S]/Km), where [S] is the ATP concentration and Km is Michaelis constant.
The Homogeneous Time Resolved Fluorescence (HTRF) kinase assay was carried out in 96-well polypropylene plates (BD Biosciences, Bedford, Mass.). […]

[2] = target: CDK2/Cyclin E (Homo sapiens, UniProt P24941); assay: CDK2/Cyclin E kinase assay (procedure as for CDK1/Cyclin B); format: biochemical; conditions: CDK2/Cyclin E complex, Rb protein substrate; Ki=IC50/(1+[S]/Km)
Description: For the FlashPlate kinase assay, 96-well FlashPlates were coated with Rb protein at 10 μg/ml, using 100 μl per well. Plates were incubated at 4° C. overnight or at room temperature for 3 hours on a shaker. To control for nonspecific phosphorylation, one row of wells was coated with 100 μl/well coating buffer (20 mM HEPES, 0.2 M NaCl). Plates were then washed twice with wash buffer (0.01% Tween 20 in phosphate-buffered saline). Compounds to be tested (“test compounds”) were added to the wells at 5× final concentration. Reactions were initiated by immediate addition of 40 μl reaction mix (25 mM HEPES, 20 mM MgCl2, 0.002% Tween 20, 2 mM DTT, 1 μM ATP, 4 nM 33P-ATP) and a sufficient amount of enzyme to give counts that were at least 10-fold above background. Plates were incubated at room temperature on a shaker for 30 minutes. Plates were washed four times with the wash buffer, sealed, and counted on the TopCount scintillation counter (Packard Instrument Co., Downers Grove, Ill.]. The percent inhibition of Rb phosphorylation, which is a measure of the inhibition of CDK activity, was determined according to the following formula:
[formula] where “test compound” refers to the average counts per minute of the test duplicates, “nonspecific” refers to the average counts per minute when no CDK1/Cyclin B, etc., was added, and “total” refers to the average counts per minute when no compound was added. The IC50 value is the concentration of test compound that reduces by 50% the protein-kinase induced incorporation of the radiolabel under the test conditions described. The value of the inhibitor constant Ki is calculated by the following: Ki=IC50/(1+[S]/Km), where [S] is the ATP concentration and Km is Michaelis constant.
The Homogeneous Time Resolved Fluorescence (HTRF) kinase assay was carried out in 96-well polypropylene plates (BD Biosciences, Bedford, Mass.). Test compounds were first dissolved in DMSO, and then diluted in kinase assay buffer 1 (25 mM HEPES, pH7.0, 8 mM MgCl2, 1.5 mM DTT, and 162 μM ATP) with DMSO concentration at 15%. The CDK1/Cyclin B enzyme was diluted in kinase assay buffer 2 (25 mM HEPES, pH 7.0, 8 mM MgCl2, 0.003% Tween 20, 0.045% BSA, 1.5 mM DTT, and 0.675 μM Rb protein). To initiate the kinase reaction, 20 μL of compound solution was mixed with 40 μL of CDK1/Cyclin B solution in assay plates with final concentration of CDK1/Cyclin B and Rb at 0.1 μg/mL and […], respectively, and incubated at 37° C. for 30 min. […] At the completion of the incubation, 35 μL of reaction mixture was transferred to fresh 384-well black polystyrene plates (Corning Incorporated, Corning, N.Y.) and read on a fluorescent plate reader at excitation wavelength of 340 nm and emission wavelength of 665/615 nm. […]

Chain of CDK1/Cyclin B (P06493 whole entry, the tested form may be a part): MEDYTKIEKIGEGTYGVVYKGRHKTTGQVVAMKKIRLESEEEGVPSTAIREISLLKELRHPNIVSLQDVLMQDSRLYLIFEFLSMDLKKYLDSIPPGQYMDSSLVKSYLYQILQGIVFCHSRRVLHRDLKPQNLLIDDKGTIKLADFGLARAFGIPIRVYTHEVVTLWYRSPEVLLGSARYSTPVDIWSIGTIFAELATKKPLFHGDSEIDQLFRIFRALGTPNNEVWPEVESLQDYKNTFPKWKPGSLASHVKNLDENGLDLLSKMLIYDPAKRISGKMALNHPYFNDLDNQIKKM
Chain of CDK1/Cyclin B (P14635 whole entry partner, the tested form may be a part): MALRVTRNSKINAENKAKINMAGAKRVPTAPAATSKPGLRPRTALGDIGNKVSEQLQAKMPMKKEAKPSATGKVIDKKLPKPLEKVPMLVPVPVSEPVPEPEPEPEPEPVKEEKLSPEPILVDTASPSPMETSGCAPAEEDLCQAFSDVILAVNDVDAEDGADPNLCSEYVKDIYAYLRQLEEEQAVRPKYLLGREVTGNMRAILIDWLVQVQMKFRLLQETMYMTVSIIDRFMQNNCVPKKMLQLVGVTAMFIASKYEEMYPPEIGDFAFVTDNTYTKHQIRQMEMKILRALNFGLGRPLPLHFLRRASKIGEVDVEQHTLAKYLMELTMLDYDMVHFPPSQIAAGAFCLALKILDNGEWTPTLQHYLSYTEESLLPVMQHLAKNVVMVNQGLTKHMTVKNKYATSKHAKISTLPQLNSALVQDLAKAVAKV

Compound	Ki [1] [nM]	Ki [2] [nM]	melting point [°C]
CC(=O)OC[C@H](NC1=NC(=O)/C(=C/c2c[nH]c3ncccc23)S1)c1ccccc1 [Example 7, Acetic Acid 2-[4-oxo-5-(1H-pyrrolo[2,3,b]pyridine-3-ylmethylene)-4,5-dihydro-thiazol-2-ylamino]-2-(R)-phenyl-ethyl ester]			243.7 to 246.8
O=C1N=C(N[C@@H](CO)c2ccccc2)S/C1=C\c1c[nH]c2ncccc12 [Example 3, 2-(2-Hydroxy-1-(R)-phenyl-ethylamino)-5-[1-(1H-pyrrolo[2,3-b]pyridin-3-yl)-meth-(Z)-ylidine]-thiazol-4-one]			317 to 319
O=C1N=C(NC2C[C@@H]2c2ccccc2)S/C1=C\c1c[nH]c2ncccc12 (stereo partly drawn) [Example 5, 2-((1R,2S)-2-Phenyl-cyclopropylamino)-5-[1-(1H-pyrrolo[2,3-b]pyridin-3-yl)-meth-(Z)-ylidine]-thiazol-4-one]	10	17	308 to 310
NC1=NC(=O)/C(=C/c2c[nH]c3ncccc23)S1 [Example 15, 2-Amino-5-[1-(1H-pyrrolo[2,3-b]pyridin-3-yl)-meth-(Z)-ylidene]-thiazol-4-one]	830	252	
CC(C)[C@H](CO)NC1=NC(=O)/C(=C/c2c[nH]c3ncccc23)S1 [Example 6, 2-(1-(R)-Hydroxymethyl-2-methylpropylamino)-5-[1-(1H-pyrrolo[2,3-b]pyridin-3-yl)-meth-(Z)-ylidine]-thiazol-4-one]			269 to 271

Further lines, results first:

Ki [1] [nM]	Ki [2] [nM]	melting point [°C]	Compound
48	18		Cc1ccsc1CNC1=NC(=O)/C(=C/c2c[nH]c3ncccc23)S1 [Example 10, 2-[(3-Methyl-thiophen-2-ylmethyl)-amino)-5-[1-(1H-pyrrolo[2,3-b]pyridin-3-yl)-meth-(Z)-ylidine]-thiazol-4-one]
		243 to 246	O=C1N=C(NCc2cccs2)S/C1=C\c1c[nH]c2ncccc12 [Example 1, 5-[1-(1H-Pyrrolo[2,3-b]pyridin-3-yl)-meth-(Z)-ylidine]-2-[(thiophen-2-ylmethyl)-amino]-thiazol-4-one]
1150	187		COc1ccccc1NC1=NC(=O)/C(=C/c2c[nH]c3ncccc23)S1 [Example 18, 2-(2-Methoxy-phenylamino)-5-[1-(1H-pyrrolo[2,3-b]pyridin-3-yl)-meth-(Z)-ylidene]-thiazol-4-one]
		318 to 320	O=C1N=C(NCc2ccc(F)c(Cl)c2)S/C1=C\c1c[nH]c2ncccc12 [Example 4, 2-(3-Chloro-4-fluorobenzylamino)-5-[1-(1H-pyrrolo[2,3-b]pyridin-3-yl)-meth-(Z)-ylidine]-thiazol-4-one]
